What follows are compounds tested against T1, purified human Factor XIa (Homo sapiens, UniProt P03951) (assay: Factor XIa Assay (fluorogenic substrate Z-Gly-Pro-Arg-AFC)). Conditions: purified human Factor XIa 40 pM; Z-Gly-Pro-Arg-AFC 100 μM; 50 mM HEPES pH 7.4; read-out: hFXIa Ki (nM), Factor XIa inhibition.
T1 construct: purified human Factor XIa; purchased Sekisui Diagnostics
T1 sequence (P03951 388-625 limits assumed): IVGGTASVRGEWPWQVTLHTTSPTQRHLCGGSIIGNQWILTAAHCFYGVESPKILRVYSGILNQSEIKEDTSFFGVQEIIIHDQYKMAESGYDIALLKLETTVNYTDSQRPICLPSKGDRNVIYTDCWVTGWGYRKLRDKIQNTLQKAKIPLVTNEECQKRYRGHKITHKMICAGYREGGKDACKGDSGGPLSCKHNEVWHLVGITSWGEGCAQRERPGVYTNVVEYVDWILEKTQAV
T1 sequence (P03951 19-387 partner limits assumed): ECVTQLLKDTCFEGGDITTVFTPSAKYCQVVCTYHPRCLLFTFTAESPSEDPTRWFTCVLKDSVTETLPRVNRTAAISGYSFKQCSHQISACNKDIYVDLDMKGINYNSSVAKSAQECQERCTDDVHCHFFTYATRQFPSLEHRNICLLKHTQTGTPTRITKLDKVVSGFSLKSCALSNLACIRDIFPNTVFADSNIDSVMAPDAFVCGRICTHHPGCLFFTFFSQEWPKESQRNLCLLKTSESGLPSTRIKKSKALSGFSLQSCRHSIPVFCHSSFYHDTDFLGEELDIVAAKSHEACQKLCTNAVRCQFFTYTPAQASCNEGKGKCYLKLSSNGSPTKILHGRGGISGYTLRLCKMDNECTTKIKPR
Type: biochemical
Protocol: The effectiveness of compound of the present invention as inhibitors of Coagulation Factor XIa can be determined using a relevant purified serine protease, and an appropriate synthetic substrate. The rate of hydrolysis of the chromogenic or fluorogenic substrate by the relevant serine protease was measured both in the absence and presence of compounds of the present invention. Assays were conducted at room temperature or at 37° C. […] A decrease in the rate of fluorescence change in the presence of inhibitor is indicative of enzyme inhibition. Such methods are known to one skilled in the art. The results of this assay are expressed as the inhibitory constant, Ki.
Factor XIa determinations were made in 50 mM HEPES buffer at pH 7.4 containing 150 mM NaCl, 5 mM CaCl2, and 0.1% PEG 8000 (polyethylene glycol; J T Baker or Fisher Scientific). Determinations were made using purified human Factor XIa at a final concentration of 40 pM (Sekisui Diagnostics) and he synthetic substrate, Z-Gly-Pro-Arg-AFC, TFA salt (Sigma #C0980) at a concentration of 100 μM.
Activity assays were performed by diluting a stock solution of substrate at least tenfold to a final concentration ≦0.1 Km into a solution containing enzyme or enzyme equilibrated with inhibitor. Times required to achieve equilibration between enzyme and inhibitor were determined in control experiments. Initial velocities of product formation in the absence (Vo) or presence of inhibitor (Vi) were measured. Assuming competitive inhibition, and that unity is negligible compared Km/[S], [I]/e, and [I]/e (where [S], [I], and e respectively represent the total concentrations, of substrate, inhibitor and enzyme), the equilibrium constant (Ki) for dissociation of the inhibitor from the enzyme can be obtained from the dependence of Vo/Vi on [I] shown in the following equation.
For `COC(=O)Nc1ccc(-c2nc(C3C(c4ccccc4)CCCN3C(=O)/C=C/c3cc(Cl)ccc3-n3cnnn3)[nH]c2C)cc1` (centres unmarked) [Example 1-52, (E)-methyl (4-(2-(1-(3-(5-chloro-2-(1H-tetrazol-1-yl)phenyl)acryloyl)-3-phenylpiperidin-2-yl)-5-methyl-1H-imidazol-4-yl)phenyl)carbamate], the Ki was 95.8 nM.
`O=C(/C=C/c1cc(Cl)ccc1-n1cnnn1)N1CCCC(c2ccccc2)C1c1nc(-c2ccc3[nH]c(=O)oc3c2)c[nH]1` (centres unmarked) [Example 1-53, (E)-6-(2-(1-(3-(5-chloro-2-(1H-tetrazol-1-yl)phenyl)acryloyl)-3-phenylpiperidin-2-yl)-1H-imidazol-4-yl)benzo[d]oxazol-2(3H)-one] was tested, and the Ki was > 10000 nM.
`COC(=O)Nc1ccc(-c2nc([C@@H]3[C@H](c4ccccc4)CCCN3C(=O)/C=C/c3cc(Cl)ccc3-n3cnnn3)[nH]c2Cl)cc1` [Example 1-55, Methyl (4-(5-chloro-2-((2S,3S)-1-((E)-3-(5-chloro-2-(1H-tetrazol-1-yl)phenyl)acryloyl)-3-phenylpiperidin-2-yl)-1H-imidazol-4-yl)phenyl)carbamate] showed a Ki of 31.5 nM.
For `O=C(O)c1ccc(NC(=O)[C@H]2[C@@H](c3ccccc3)CCCN2C(=O)/C=C/c2cc(Cl)ccc2-n2cnnn2)cc1` [Example 1-56, 4-((2R,3R)-1-((E)-3-(5-chloro-2-(1H-tetrazol-1-yl)phenyl)acryloyl)-3-phenylpiperidine-2-carboxamido)benzoic acid], the Ki was 4010 nM.
In the case of `O=C(O)c1cccc(-c2c[nH]c(C3C(c4ccccc4)CCCN3C(=O)/C=C/c3cc(Cl)ccc3-n3cnnn3)n2)c1` (centres unmarked) [Example 1-58, (E)-3-(2-(1-(3-(5-chloro-2-(1H-tetrazol-1-yl)phenyl)acryloyl)-3-phenylpiperidin-2-yl)-1H-imidazol-4-yl)benzoic acid], the Ki is reported as 56.9 nM.
`O=C(Nc1ccc2[nH]ncc2c1)C1C(c2ccccc2)CCCN1C(=O)/C=C/c1cc(Cl)ccc1-n1cnnn1` (centres unmarked) [Example 1-59, (E)-1-(3-(5-chloro-2-(1H-tetrazol-1-yl)phenyl)acryloyl)-N-(1H-indazol-5-yl)-3-phenylpiperidine-2-carboxamide] was tested, and the Ki was 13.9 nM.
`O=C(Nc1ccc2[nH]ncc2c1)C1C(c2ccccc2)CCCN1C(=O)/C=C/c1cc(Cl)ccc1-n1cnnn1` (centres unmarked) [Example 1-60, (E)-1-(3-(5-chloro-2-(1H-tetrazol-1-yl)phenyl)acryloyl)-N-(1H-indazol-5-yl)-3-phenylpiperidine-2-carboxamide] was tested, and the Ki was 145 nM.
In the case of `O=C(Nc1ccc2cn[nH]c2c1)C1C(c2ccccc2)CCCN1C(=O)/C=C/c1cc(Cl)ccc1-n1cnnn1` (centres unmarked) [Example 1-61, (E)-1-(3-(5-chloro-2-(1H-tetrazol-1-yl)phenyl)acryloyl)-N-(1H-indazol-6-yl)-3-phenylpiperidine-2-carboxamide], the Ki is reported as 91.6 nM.
In the case of `O=C1Cc2cc(-c3cnc([C@H]4[C@@H](c5ccccc5)CCCN4C(=O)/C=C/c4cc(Cl)ccc4-n4cnnn4)[nH]3)ccc2N1` [Example 1-62, 2-((2R,3R)-1-((E)-3-(5-chloro-2-(1H-tetrazol-1-yl)phenyl)acryloyl)-3-phenylpiperidin-2-yl)-5-(2-oxoindolin-5-yl)-1H-imidazol-3-ium 2,2,2-trifluoroacetate], the Ki is reported as > 10000 nM.
Work on `O=C1Cc2cc(-c3cnc([C@@H]4[C@H](c5ccccc5)CCCN4C(=O)/C=C/c4cc(Cl)ccc4-n4cnnn4)[nH]3)ccc2N1` [Example 1-63, 5-(2-((2S,3S)-1-((E)-3-(5-chloro-2-(1H-tetrazol-1-yl)phenyl)acryloyl)-3-phenylpiperidin-2-yl)-1H-imidazol-5-yl)indolin-2-one] yielded a Ki of 207 nM.
`COC(=O)Nc1ccc(-c2nc([C@H]3[C@@H](c4ccccc4)CCCN3C(=O)/C=C/c3cc(Cl)ccc3-n3cnnn3)[nH]c2Cl)cc1` [Example 1-64, methyl (4-(5-chloro-2-((2R,3R)-1-((E)-3-(5-chloro-2-(1H-tetrazol-1-yl)phenyl)acryloyl)-3-phenylpiperidin-2-yl)-1H-imidazol-4-yl)phenyl)carbamate] was tested, and the Ki was > 10000 nM.
Compound `O=C(Nc1ccc2[nH]ncc2c1)[C@@H]1[C@H](c2ccccc2)CCCN1C(=O)/C=C/c1cc(Cl)ccc1-n1cnnn1` [Example 1-65, (2S,3S)-1-((E)-3-(5-chloro-2-(1H-tetrazol-1-yl)phenyl)acryloyl)-N-(1H-indazol-5-yl)-3-phenylpiperidine-2-carboxamide] has a Ki of 31.4 nM.
`COC(=O)Nc1ccc(-c2c[nH]c([C@@H]3[C@H](CO[Si](C)(C)C(C)(C)C)CCCN3C(=O)/C=C/c3cc(Cl)ccc3-n3cnnn3)n2)cc1` [Example 1-66, methyl (4-(2-((2S,3R)-3-(((tert-butyldimethylsilyl)oxy)methyl)-1-((E)-3-(5-chloro-2-(1H-tetrazol-1-yl)phenyl)acryloyl)piperidin-2-yl)-1H-imidazol-4-yl)phenyl)carbamate] was tested, and the Ki was 3910 nM.
Compound `COC(=O)Nc1ccc(-c2c[nH]c([C@@H]3[C@H](CO)CCCN3C(=O)/C=C/c3cc(Cl)ccc3-n3cnnn3)n2)cc1` [Example 1-67, methyl (4-(2-((2S,3R)-1-((E)-3-(5-chloro-2-(1H-tetrazol-1-yl)phenyl)acryloyl)-3-(hydroxymethyl)piperidin-2-yl)-1H-imidazol-4-yl)phenyl)carbamate] has a Ki of 2640 nM.
`O=C(/C=C/c1cc(Cl)ccc1-n1cnnn1)N1CCC[C@@H](c2ccccc2)[C@H]1c1nc2cc(F)ccc2[nH]1` [Example 1-68, (E)-3-(5-chloro-2-(1H-tetrazol-1-yl)phenyl)-1-((2S,3S)-2-(5-fluoro-1H-benzo[d]imidazol-2-yl)-3-phenylpiperidin-1-yl)prop-2-en-1-one] was tested, and the Ki was 428 nM.
`O=C(O)c1ccc(NC(=O)C2CCC(c3ccccc3)CN2C(=O)/C=C/c2cc(Cl)ccc2-n2cnnn2)cc1` (centres unmarked) [Example 1-71, (E)-4-(1-(3-(5-chloro-2-(1H-tetrazol-1-yl)phenyl)acryloyl)-5-phenylpiperidine-2-carboxamido)benzoic acid] was tested, and the Ki was 2610 nM.
`O=C(NC12CCC(C(=O)O)(CC1)CC2)[C@@H]1[C@H](c2ccccc2)CCCN1C(=O)/C=C/c1cc(Cl)ccc1-n1cnnn1` [Example 1-72, 4-((2S,3S)-1-((E)-3-(5-chloro-2-(1H-tetrazol-1-yl)phenyl)acryloyl)-3-phenylpiperidine-2-carboxamido)bicyclo[2.2.2]octane-1-carboxylic acid] gave a Ki of 63.6 nM.

From patent US20160229839A1, “Factor XIa Inhibitors” (Merck Sharp & Dohme Corp., priority 2013, published 2016)
